Measurements published in US20040143025A1, “Carbon monoxide generating compunds for treatment of vascular, inflammatory and immune disorders” (priority 2002, published 2004).
Like-named read-outs stand apart in the source and are kept apart here.

Assays:
[1] = mice exposed to gaseous CO at 500 ppm
Experimental: To examine the effect of gaseous CO on the immune system, C57/BL6 mice (B6, Jackson Laboratory, Bar Harbor, Me.) were first exposed to 500 ppm CO in air (Praxair, Danbury, Conn.) for one hour in a sealed chamber before injection of lipopolysaccharide (LPS) (0.3 mg/kg, i.v., Sigma, St Louis, Mo.). After injection, they were exposed to another hour in the CO chamber. Blood samples were collected one hour after LPS injection (through the aortic artery) and the COHb level in whole blood was measured by a whole blood AVOXimeter 4000 (A-VOX Systems, San Antonio, Tex.). Serum samples were separated and were kept at −80° C. until analysis. Serum TNF-α was measured by sandwich ELISA (Biosource, Camarillo, Calif.).
To reveal the therapeutic potential of CO generators, methylene chloride (MC, Sigma, St. Louis, Mo.) was selected as a lead compound. Different concentrations of MC were prepared by using olive oil as a solvent. Mice were treated with MC at 5 mg/kg., 50 mg/kg, and 500 mg/kg, p.o., one hour before LPS administration.

rat liver = tested on: rat liver; parameters: species or system Sprague Dawley (SD) rats
Description: Animals. Male Sprague Dawley (SD) rats weighing between 300-350 g (Harlan Sprague Dawley, Indianapolis, Ind.) were used. Animals were fed standard rodent chow and water and libitum and cared according to guidelines approved by the American Association of Laboratory Animal Care.
Isolated perfusion liver apparatus. An isolated perfusion liver apparatus was used, as described in Amersi et al., supra, and Maulik et al., Circulation 94:398-406 (1996). In brief, syngeneic rat blood, obtained for each experiment from four donor animals, was diluted to a hematocrit of 15% with Krebs Ringer Bicarbonate Buffer (mM: NaCl 118, KH2POF 1, MgSO4 0.9, CaCl2 2.5, dextrose 11.1, and NaHCO2 25), and maintained at pH of 7.4. The perfusate was pumped from a heated reservoir that warmed the perfusate to 37° C. through silastic tubing oxygenator connected to a flow meter that measured portal vein blood flow (Cole Palmer Instruments, Chicago, Ill.). Portal pressure was kept constant via a pressure monometer connected to a T fitting in the portal vein canula. […] During the experiment, pH, temperature and oxygenation were kept constant.
Ex vivo cold ischemia model. SD rats underwent isoflourane anesthesia and systemic heparinization. […] The livers were then stored for 24 h at 4° C. in UW solution, followed by ex-vivo reperfusion for 1-2 h on an isolated perfusion liver apparatus. Portal vein blood flow, pressure, and bile production were recorded every 30 min. Blood samples were collected at 30 min intervals and serum glutamic oxaloacetic transaminase (sGOT) levels were measured using an autoanalyzer from ANTECH Diagnostics (Irvine, Calif.). At the conclusion of experiment, a portion of the liver was snap frozen for mRNA extraction/Western blot analyses; the remaining samples were fixed in formalin for H&E staining.
The role of CO—HO-1 pathway in hepatic I/R injury was studied in five major treatment groups (n=4.8 rats/group). In Group 1, the extent of I/R injury was contrasted between livers perfused ex-vivo with blood saturated with CO (300 parts per million [ppm]; 0.03% balanced air) vs. air alone (21% O2). As NO may enhance HO-1 expression (Brouard et al., supra), we then investigated a link between the two gaseous molecules in Group 2 livers, which were perfused with CO supplemented with 25 mM NG-nitro-L-arginine methyl ester hydrochloride (L-NAME; Sigma Chemicals, St. Louis, Mo.), an inducible NO inhibitor. […] To analyze as to whether exogenous CO can substitute for HO-1 in preventing I/R insult, Group 4 rats were treated 24 h prior to liver procurement with ZnPP)(1.5 mg/kg/i.p; Porphyrin Products, Logan Utah), an HO-1 inhibitor, followed by ex vivo perfusion with CO. […] Brouard et al., supra. Therefore, Group 5 rats were pre-treated 60 min before harvest with p38 MAPK inhibitor, SB203580, a pyridinyl imidazol (25 mg/kg orally; Sigma). In addition, prior to reperfursion with CO, SB203580 (20 μM) was added to the perfusate.

Myeloperoxidase (MPO) = Myeloperoxidase (MPO) assay, neutrophil activity in liver tissue; parameters: species or system Sprague Dawley (SD) rats; conditions: liver tissue at conclusion of 2 h reperfusion with CO
Experimental: Myeloperoxidase (MPO) assay. MPO is a naturally occurring constituent of neutrophils and is used as a marker for neutrophil infiltration. Frozen tissue samples were thawed and suspended in an iced solution of 0.5% hexadecyltrimethyl-ammonium (Sigma) and 50 mMol potassium phosphate buffer solution (Sigma) with pH adjusted to 5. Samples are homogenized for 30 sec, centrifuged at 15,000 rpm for 15 min at 4° C. 0.1 ml of the supernatant was then mixed in solution of hydrogen peroxide-sodium acetate and tetramethyl benzidine (Sigma). The change in absorbance at 460 run was measured with a Beckman DU spectrophotometer (Beckman Institute, Fullerton, Calif.). The quantity of enzyme degrading 1 μMol peroxide per minute at 25° C. per gram of tissue was defined as one unit of MPO activity.

[2] = Systemic COHb and blood chemistry after oral methylene chloride in rats; format: in vivo, rat; conditions: MC-treated rats, 500 mg/kg daily
Experimental: MC (Sigma, St. Louis, Mo.) was diluted in olive oil and administered orally on a daily basis (from day 0 to 30) at 500 mg/kg. This dose saturates the cytochrome P-450 oxidative system, and yields maximal COHb values of 10% COHb in venous or aortic blood. Gargas et al. and Andersen et al., supra; Wirkner et al., Toxicol. App. PharmacoL 143:83-88 (1997). […] Id. […] Kirschman, Fd. Chem. Toxic. 24:943-49 (1986); Dhillon and Von Burg, Toxicology Update 1:329-35 (1995). MC may show liver and central nervous system toxicity at higher doses and/or longer exposures. Id. COHb levels were evaluated in heparinized venous blood using the VOXimeter sensor (A-VOX Systems, San Antonio, Tex.) and expressed as the percentage of total hemoglobin. Bicarbonates, soluble CO2, total CO2 and pH were measured using standard clinical biochemistry techniques (Laboratory of Biochemistry, University Hospital of Nantes).

[3] = cited from earlier work
[4] = 24 h cold storage, 2 h reperfusion, CO 300 ppm vs air alone

Row | SMILES | O2Hb levels [1] [%] | bile production (rat liver; [4]) | portal vein resistance (rat liver; [4]) | sGOT levels (rat liver; CO 300 ppm alone, 2 h reperfusion) [IU/L] | sGOT levels (rat liver; CO 300 ppm, 1 h reperfusion) [IU/L] | MPO activity (Myeloperoxidase (MPO)) [U/mg] | behavior, food consumption, gross necropsy [2] | HbCO generated ([3]; 500 mg/kg MC per os) | half life of metabolism ([3]; 500 mg/kg MC per os) | toxicity on repeated administration ([3]; 500 mg/kg for 4 weeks, rats) | maximal COHb values in venous or aortic blood ([3]; 500 mg/kg orally) [% COHb] | portion of the compound converted into carbon monoxide ([3]; rat, in vivo)
1 | [C-]#[O+] [CO, carbon monoxide] | 79.18±1.569 | significantly more bile | significantly decreased | 163±27 | 79±14 | 1.3±0.2 | – | – | – | – | – | –
2 | ClCCl [methylene chloride] | – | – | – | – | – | – | normal behavior, food consumption and no particular gross necropsy alterations | around 10% | about 3 h | did not induce major body weight, biochemical or histological changes | 10 | 50-80%
